Test results from ChEMBL document CHEMBL1131350, “Design of novel tripeptides with macrophage migration-enhancing activity” (1998).
Peptide text beside a SMILES is read from it. * marks the point of attachment. Fmoc = O=C(OCC1c2ccccc2-c2ccccc21)*; Cbz = O=C(OCc1ccccc1)*; Boc = CC(C)(C)OC(=O)*

Tests used:
[1] = Macrophage migration-enhancing activity evaluated using rabbit alveolar macrophages at 1E-7M; format: functional, Oryctolagus cuniculus
Oryctolagus cuniculus = species: Oryctolagus cuniculus; assay: Macrophage migration-enhancing activity was evaluated using rabbit alveolar macrophages expressed as Migration Index (MI); format: functional

Structure (SMILES) | MI [1] | MI (Oryctolagus cuniculus)
NC(=O)[C@H](Cc1c[nH]cn1)NC(=O)[C@H](Cc1ccccc1)NC(=O)[C@H](Cc1ccccc1)NC(=O)OCC1c2ccccc2-c2ccccc21 (Fmoc-Phe-Phe-His-NH2) | 122 | –
Clc1ccc(C2=N[C@H](c3ccccc3)[C@H](c3ccccc3)N2)cc1 | – | 140
NC(=O)[C@H](Cc1ccccc1)NC(=O)[C@H](Cc1c[nH]cn1)NC(=O)[C@H](Cc1ccccc1)NC(=O)OCc1ccccc1 (Cbz-Phe-His-Phe-NH2) | -1 | –
NC(=O)[C@H](Cc1ccccc1)NC(=O)[C@H](Cc1ccccc1)NC(=O)[C@H](Cc1c[nH]cn1)NC(=O)OCc1ccccc1 (Cbz-His-Phe-Phe-NH2) | 1 | –
NC(=O)[C@H](Cc1c[nH]cn1)NC(=O)[C@H](Cc1ccccc1)NC(=O)[C@H](Cc1ccc(O)cc1)NC(=O)OCc1ccccc1 (Cbz-Tyr-Phe-His-NH2) | -28 | –
NCCCC[C@H](NC(=O)[C@H](Cc1ccccc1)NC(=O)[C@H](Cc1ccccc1)NC(=O)OCc1ccccc1)C(N)=O (Cbz-Phe-Phe-Lys-NH2) | 3 | –
O=C(N[C@@H](Cc1ccccc1)C(=O)N[C@@H](Cc1ccccc1)C(=O)N[C@@H](Cc1c[nH]cn1)C(=O)O)OCc1ccccc1 (Cbz-Phe-Phe-His-OH) | -6 | –
C[C@H](NC(=O)OCc1ccccc1)C(=O)N[C@@H](Cc1ccccc1)C(=O)N[C@@H](Cc1c[nH]cn1)C(N)=O (Cbz-Ala-Phe-His-NH2) | 2 | –
CC(C)C[C@H](NC(=O)[C@H](Cc1ccccc1)NC(=O)OCc1ccccc1)C(=O)N[C@@H](Cc1c[nH]cn1)C(N)=O (Cbz-Phe-Leu-His-NH2) | 4 | –
NC(=O)[C@H](Cc1c[nH]cn1)NC(=O)[C@H](Cc1ccccc1)NC(=O)[C@H](Cc1ccccc1)NC(=O)[C@H](Cc1ccccc1)NC(=O)OCc1ccccc1 (Cbz-FFFH-NH2) | 15 | –
CC(C)[C@H](NC(=O)OCc1ccccc1)C(=O)N[C@@H](Cc1ccccc1)C(=O)N[C@@H](Cc1c[nH]cn1)C(N)=O (Cbz-Val-Phe-His-NH2) | 3 | –
CC(C)(C)OC(=O)N[C@@H](Cc1ccccc1)C(=O)N[C@@H](Cc1ccccc1)C(=O)N[C@@H](Cc1c[nH]cn1)C(N)=O (Boc-Phe-Phe-His-NH2) | 96 | –
NC(=O)C(Cc1c[nH]cn1)NC(=O)[C@@H](Cc1ccccc1)NC(=O)OCc1ccccc1 (some centres undefined) | 18 | –
NC(=O)[C@@H](Cc1c[nH]cn1)NC(=O)[C@H](Cc1ccccc1)NC(=O)[C@H](Cc1ccccc1)NC(=O)OCc1ccccc1 | -1 | –
NC(=O)[C@H](Cc1c[nH]cn1)NC(=O)[C@H](Cc1ccc(O)cc1)NC(=O)[C@H](Cc1ccc(O)cc1)NC(=O)OCc1ccccc1 (Cbz-Tyr-Tyr-His-NH2) | -25 | –
NC(=O)[C@H](Cc1c[nH]cn1)NC(=O)[C@H](Cc1ccccc1)NC(=O)[C@H](Cc1c[nH]c2ccccc12)NC(=O)OCc1ccccc1 (Cbz-Trp-Phe-His-NH2) | 14 | –
N=C(N)NCCC[C@H](NC(=O)[C@H](Cc1ccccc1)NC(=O)[C@H](Cc1ccccc1)NC(=O)OCc1ccccc1)C(N)=O (Cbz-Phe-Phe-Arg-NH2) | 8 | –
COC(=O)[C@H](Cc1c[nH]cn1)NC(=O)[C@H](Cc1ccccc1)NC(=O)[C@H](Cc1ccccc1)NC(=O)OCc1ccccc1 (Cbz-Phe-Phe-His-OMe) | 97 | –
NC(=O)[C@H](Cc1c[nH]cn1)NC(=O)[C@H](Cc1ccccc1)NC(=O)[C@@H](N)Cc1ccccc1 (H-Phe-Phe-His-NH2) | 7 | –
NC(=O)[C@H](Cc1c[nH]cn1)NC(=O)[C@H](Cc1ccccc1)NC(=O)[C@H](Cc1ccccc1)NC(=O)OCc1ccccc1 | 94 | –
NC(=O)[C@H](Cc1c[nH]cn1)NC(=O)[C@@H](Cc1ccccc1)NC(=O)[C@H](Cc1ccccc1)NC(=O)OCc1ccccc1 | 0 | –
NC(=O)[C@H](Cc1c[nH]cn1)NC(=O)[C@H](Cc1c[nH]c2ccccc12)NC(=O)[C@H](Cc1ccccc1)NC(=O)OCc1ccccc1 (Cbz-Phe-Trp-His-NH2) | 7 | –
CC(C)C[C@H](NC(=O)OCc1ccccc1)C(=O)N[C@@H](Cc1ccccc1)C(=O)N[C@@H](Cc1c[nH]cn1)C(N)=O (Cbz-Leu-Phe-His-NH2) | 4 | –
CCOC(=O)[C@H](Cc1c[nH]cn1)NC(=O)[C@H](Cc1ccccc1)NC(=O)[C@H](Cc1ccccc1)NC(=O)OCc1ccccc1 (Cbz-Phe-Phe-His-OEt) | 95 | –
NC(=O)[C@H](Cc1c[nH]cn1)NC(=O)[C@H](Cc1ccccc1)NC(=O)[C@@H](Cc1ccccc1)NC(=O)OCc1ccccc1 | 2 | –
NC(=O)[C@H](Cc1c[nH]cn1)NC(=O)[C@H](Cc1c[nH]c2ccccc12)NC(=O)[C@H](Cc1c[nH]c2ccccc12)NC(=O)OCc1ccccc1 (Cbz-Trp-Trp-His-NH2) | 4 | –
CC(=O)N[C@@H](Cc1ccccc1)C(=O)N[C@@H](Cc1ccccc1)C(=O)N[C@@H](Cc1c[nH]cn1)C(N)=O (Ac-Phe-Phe-His-NH2) | 61 | –
NC(=O)[C@H](Cc1c[nH]cn1)NC(=O)[C@H](Cc1ccc(O)cc1)NC(=O)[C@H](Cc1ccccc1)NC(=O)OCc1ccccc1 (Cbz-Phe-Tyr-His-NH2) | -23 | –
NC(=O)[C@H](Cc1c[nH]cn1)NC(=O)[C@H](Cc1ccccc1)NC(=O)[C@H](Cc1ccccc1)N1C(=O)c2ccccc2C1=O | -1 | –
